In publication PMC5855550, “Pharmacokinetic Study of Bioactive Flavonoids in the Traditional Japanese Medicine Keigairengyoto Exerting Antibacterial Effects against Staphylococcus aureus” (International Journal of Molecular Sciences, 2018):

Assays:
RAW264.7 cells = experiment: Macrophage culture assay: phagocytosis of FITC-conjugated S. aureus; assay type: cell-based, mouse; conditions: for Phagocytosis relative change versus control / Phagocytosis MFI: IFN-γ 0.5 ng/mL; for Phagocytosis MFI: mean ± SEM of triplicates
Description: Cells of the mouse macrophage cell line RAW264.7 (ATCC, Manassas, VA, USA) were grown in Dulbecco’s modified Eagles medium supplemented with 10% fetal bovine serum (FBS), 4.5 g/L glucose, 2 mmol/L L-glutamine, 100 U/mL penicillin, 100 µg/mL streptomycin, and 10 mmol/L HEPES. […] After 3 days’ incubation at 37 °C, culture fluids were removed and replaced by warm medium containing 30 μg/mL FITC-conjugated S. aureus. After 30 min incubation in a 5% CO2 incubator, cells were harvested using cold PBS containing 2 mmol/L EDTA, washed, and fixed for 15 min at 4 °C with phosphate buffer containing 4% paraformaldehyde (pH 7.4). FITC-positive cells were determined using a FACSaria II flow cytometer and DIVA 8.0.1 software (Becton Dickinson, San Jose, CA, USA). Phagocytic activity is expressed as the mean fluorescence intensity (MFI) from individual cells.

[1] = Plasma pharmacokinetics of KRT-derived compounds in rats given oral KRT (LC-MS/MS, with or without β-glucuronidase treatment of plasma)
Description: To specifically deconjugate glucuronides, 80 μL of plasma sample was incubated with 50 μL of β-glucuronidase solution containing 200 units/mL β-glucuronidase from Escherichia coli (Sigma-Aldrich) for 2 h at 37 °C. The deconjugation reaction was stopped by adding ethyl acetate or by refrigerating the mixture considering the following procedures. This pretreated solution was injected into the two liquid chromatography–mass spectrometry with tandem mass spectrometry (LC-MS/MS) systems after pooling with an internal standard solution of niflumic acid (Sigma-Aldrich) or atropine (Wako Pure Chemical Industries, Osaka, Japan).
For quantification of apigenin, wogonin, wogonoside, hesperetin, naringenin, liquiritigenin, genistein, and luteolin in β-glucuronidase-naive (untreated) plasma, 200 µL plasma samples were pretreated by liquid-liquid extraction using ethyl acetate. The total supernatant was collected, dried, and concentrated using a centrifugal evaporator. The dried residue was then dissolved in 60 μL of the specific HPLC mobile phase used for each analytical method, and a 10 or 20 μL volume injected into the LC-MS/MS system.
For quantification of baicalin, baicalein, and berberine in untreated plasma, 80 µL of plasma was pretreated by solid-phase extraction using Oasis HLB 96-well µElution plate (Waters, Milford, MA, USA). The methanol eluates were collected, dried, and dissolved in 60 μL of the specific HPLC mobile phase. A 10 or 20 μL volume was then injected into the LC-MS/MS system.
For quantification of glycyrrhizic acid and glycyrrhetinic acid in untreated plasma, 100 µL plasma samples were pretreated by deproteinization using methanol. The supernatant was collected, dried, and concentrated using a centrifugal evaporator. The dried residue was then dissolved in 60 μL of the specific HPLC mobile phase used for the analytical method, and a 10 μL volume injected into the LC-MS/MS system.
For quantification of wogonin, wogonoside, hesperetin, naringenin, liquiritigenin, and genistein in treated plasma, the reaction solutions after deconjugation reactions were pretreated by liquid-liquid extraction. The supernatant was dissolved in 120 μL of the specific HPLC mobile phase, and a 10 or 15 μL volume injected into the LC-MS/MS system.
For quantification of apigenin, luteolin, baicalin, baicalein, and berberine in treated plasma, the reaction solutions after deconjugation were pretreated by solid-phase extraction by the method described above, and 10 or 15 μL of the solution dissolved in 50 μL of the specific HPLC mobile phase was injected into the LC-MS/MS system.
Pharmacokinetic parameters of flavonoids and glucuronide metabolites in KRT-administrated plasma with or without β-glucuronidase treatment were analyzed by noncompartmental modeling using Phoenix WinNonlin (version 6.3, Certara L.P., St. Louis, MO, USA) to determine various pharmacokinetic constants, including Cmax, tmax, t1/2, and AUC0–last. The t1/2 was […] loge2/ke, where ke is the terminal elimination rate constant determined from at least three data points on the descending linear limb.

β-glucuronidase = target: T1, β-glucuronidase (Mus musculus, UniProt P12265); experiment: Conversion assay of baicalin to baicalein by macrophages, macrophage lysate and skin homogenate; assay type: in vitro ADME; conditions: baicalin 10 μmol/L; 24 h incubation; living macrophages (RAW264.7), also lysates of macrophages and skin
T1 construct: endogenous in cells; host or cells: RAW264.7 cells (live or lysate); alternatively back-skin homogenate supernatant of naive mice (tissue)
T1 sequence (P12265 23-648): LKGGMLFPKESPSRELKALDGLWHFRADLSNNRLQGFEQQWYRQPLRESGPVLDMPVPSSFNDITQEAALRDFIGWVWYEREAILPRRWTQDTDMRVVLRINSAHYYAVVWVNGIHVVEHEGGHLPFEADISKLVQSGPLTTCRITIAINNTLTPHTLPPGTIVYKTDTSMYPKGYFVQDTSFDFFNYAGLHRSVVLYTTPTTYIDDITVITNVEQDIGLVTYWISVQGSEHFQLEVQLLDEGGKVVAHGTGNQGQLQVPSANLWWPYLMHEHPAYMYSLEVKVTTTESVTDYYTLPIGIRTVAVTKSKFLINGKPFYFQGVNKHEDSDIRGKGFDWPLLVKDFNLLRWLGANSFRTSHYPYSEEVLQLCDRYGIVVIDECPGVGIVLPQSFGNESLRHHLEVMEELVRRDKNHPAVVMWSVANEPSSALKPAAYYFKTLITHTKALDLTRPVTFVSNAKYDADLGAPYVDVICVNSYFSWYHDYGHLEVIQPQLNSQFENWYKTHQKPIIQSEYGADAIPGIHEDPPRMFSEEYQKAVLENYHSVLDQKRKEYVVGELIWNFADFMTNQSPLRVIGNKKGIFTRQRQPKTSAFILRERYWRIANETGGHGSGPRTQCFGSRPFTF
Description: Naïve mice were sacrificed by exsanguination to obtain skin samples from the back. After shaving with an electric razor, the skin was excised and homogenized in cold PBS at 20 mg/mL. After centrifugation at 10,000× g for 20 min at 4 °C, supernatants were harvested and stored at −80 °C until use.
To examine β-glucuronidase activity in skin tissue, baicalin (final 10 μmol/L) was added as a substrate to skin homogenate in 24-well plates. Alternatively, to examine β-glucuronidase activity in macrophages, baicalin (final 10 μmol/L) was added to live RAW264.7 cells seeded at 1 × 10^5 cells/0.5 mL/well or to cell lysates in 24-well plates. After 24 h incubation in a 5% CO2 incubator, supernatants were harvested and stored at −80 °C until measurement of baicalin and baicalein by LC-MS/MS as described above.

macrophage = test system: macrophage; parameters: method as in doi:10.24294/ti.v1.i1.31; conditions: previous data; cited from earlier work
[2] = Exp. 1, 10 μmol/L, 3 days, control 155 ± 4
[3] = Sprague-Dawley, rat, in vivo, po, 2 g/kg
[4] = Sprague-Dawley, rat, plasma, po, 2 g/kg
[5] = Exp. 2, 1 μmol/L, control 226 ± 12
[6] = Exp. 2, 3 μmol/L, control 226 ± 12
[7] = Exp. 2, 10 μmol/L, control 226 ± 12
[8] = Sprague-Dawley, rat, in vivo, po

O=c1c(-c2ccc(O)cc2)coc2cc(O)cc(O)c12 [Genistein, genistein]
phagocytosis by macrophages (result in words) (RAW264.7 cells; 10 μmol/L): enhanced
Phagocytosis relative change versus control (RAW264.7 cells; Exp. 1, 10 μmol/L): 3.4
Phagocytosis MFI (RAW264.7 cells; [2]): 525 ± 22
AUC(0-t) [1, 3]: 9.65 ng·h/mL
Cmax [1, 3]: 0.998 ng/mL
Tmax [1, 3]: 24 h
plasma concentration ([1]; β-glucuronidase-treated plasma until 6 h after KRT administration, detected at 10 and 24 h): below the detection limit

O=C1C[C@@H](c2ccc(O)cc2)Oc2cc(O)cc(O)c21 [Naringenin, naringenin]
phagocytosis by macrophages (result in words) (RAW264.7 cells; 10 μmol/L): enhanced
Phagocytosis relative change versus control (RAW264.7 cells; Exp. 1, 10 μmol/L): 1.5
Phagocytosis MFI (RAW264.7 cells; [2]): 236 ± 10
AUC(0-t) [1, 3]: 9.53 ng·h/mL
Cmax [1, 3]: 1.34 ng/mL
Tmax [1, 3]: 4 h
half-life [1, 3]: 181 min

CC1(C)[C@@H](O[C@H]2O[C@H](C(=O)O)[C@@H](O)[C@H](O)[C@H]2O[C@@H]2O[C@H](C(=O)O)[C@@H](O)[C@H](O)[C@H]2O)CC[C@]2(C)[C@H]3C(=O)C=C4[C@@H]5C[C@@](C)(C(=O)O)CC[C@]5(C)CC[C@@]4(C)[C@]3(C)CC[C@@H]12 [Glycyrrhizic acid, glycyrrhizic acid]
Cmax [1, 4]: 2.88 ng/mL
Tmax [1, 4]: 1 h

O=C(O)[C@H]1O[C@@H](Oc2cc3oc(-c4ccccc4)cc(=O)c3c(O)c2O)[C@H](O)[C@@H](O)[C@@H]1O [baicalin, baicalein 7-O-glucuronide]
deconjugation of baicalin to aglycone baicalein (β-glucuronidase): almost completely deconjugated to baicalein
phagocytosis by macrophages (result in words) (RAW264.7 cells; 10 μmol/L): promoted
Phagocytosis relative change versus control (RAW264.7 cells; Exp. 2, 1 μmol/L): 1.1
Phagocytosis MFI (RAW264.7 cells; [5]): 238 ± 9
Phagocytosis relative change versus control (RAW264.7 cells; Exp. 2, 3 μmol/L): 1.2
Phagocytosis MFI (RAW264.7 cells; [6]): 269 ± 10
Phagocytosis relative change versus control (RAW264.7 cells; Exp. 2, 10 μmol/L): 2.4
Phagocytosis MFI (RAW264.7 cells; [7]): 531 ± 19
AUC(0-t) [1, 3]: 10100 ng·h/mL
Cmax [1, 3]: 1020 ng/mL
Tmax [1, 3]: 4 h
half-life [1, 3]: 212 min

COc1ccc([C@@H]2CC(=O)c3c(O)cc(O)cc3O2)cc1O [Hesperetin, hesperetin]
phagocytosis by macrophages (result in words) (RAW264.7 cells; 10 μmol/L): did not
Phagocytosis relative change versus control (RAW264.7 cells; Exp. 1, 10 μmol/L): 1.2
Phagocytosis MFI (RAW264.7 cells; [2]): 193 ± 12
AUC(0-t) [1, 4]: 2.83 ng·h/mL
Cmax [1, 4]: 0.644 ng/mL
Tmax [1, 4]: 4 h

O=C1C[C@@H](c2ccc(O)cc2)Oc2cc(O)ccc21 [Liquiritigenin, liquiritigenin]
phagocytosis by macrophages (result in words) (RAW264.7 cells; 10 μmol/L): enhanced
Phagocytosis relative change versus control (RAW264.7 cells; Exp. 1, 10 μmol/L): 1.6
Phagocytosis MFI (RAW264.7 cells; [2]): 245 ± 4
AUC(0-t) [1, 4]: 8.68 ng·h/mL
Cmax [1, 4]: 2.11 ng/mL
Tmax [1, 4]: 4 h

COc1c(O[C@@H]2O[C@H](C(=O)O)[C@@H](O)[C@H](O)[C@H]2O)cc(O)c2c(=O)cc(-c3ccccc3)oc12 [wogonoside, wogonin 7-O-glucuronide]
AUC(0-t) [1, 4]: 3400 ng·h/mL
Tmax [1, 4]: 6 h

O=c1cc(-c2ccc(O)cc2)oc2cc(O)cc(O)c12 [Apigenin, apigenin]
phagocytosis by macrophages (result in words) (RAW264.7 cells; 10 μmol/L): enhanced
Phagocytosis relative change versus control (RAW264.7 cells; Exp. 1, 10 μmol/L): 3.3
Phagocytosis MFI (RAW264.7 cells; [2]): 507 ± 11
Tmax [1, 8]: 10.0 h
AUC(0-t) [1, 3]: 0.843 ng·h/mL
Cmax [1, 3]: 0.14 ng/mL
Tmax [1, 3]: 4 h

O=c1cc(-c2ccccc2)oc2cc(O)c(O)c(O)c12 [Baicalein, baicalein]
phagocytosis by macrophages (result in words) (RAW264.7 cells; 10 μmol/L): enhanced
Phagocytosis relative change versus control (RAW264.7 cells; Exp. 1, 10 μmol/L): 3.4
Phagocytosis MFI (RAW264.7 cells; [2]): 530 ± 6
Phagocytosis relative change versus control (RAW264.7 cells; Exp. 2, 1 μmol/L): 1.0
Phagocytosis MFI (RAW264.7 cells; [5]): 223 ± 10
Phagocytosis relative change versus control (RAW264.7 cells; Exp. 2, 3 μmol/L): 2.0
Phagocytosis MFI (RAW264.7 cells; [6]): 445 ± 7
Phagocytosis relative change versus control (RAW264.7 cells; Exp. 2, 10 μmol/L): 3.8
Phagocytosis MFI (RAW264.7 cells; [7]): 866 ± 25
Cmax ([1]; Sprague-Dawley, rat, plasma, oral, 2 g/kg): 1320 ng/mL
Cmax ([1]; rat plasma, no β-glucuronidase treatment, KRT 2 g/kg oral, BQL for baicalein = 125 ng/mL): BQL ^#
Cmax ([1]; rat plasma, no β-glucuronidase treatment, KRT 2 g/kg oral, BQL for baicalein = 125 ng/mL, listed as baicalein): BQL

CC1(C)[C@@H](O)CC[C@]2(C)[C@H]3C(=O)C=C4[C@@H]5C[C@@](C)(C(=O)O)CC[C@]5(C)CC[C@@]4(C)[C@]3(C)CC[C@@H]12 [glycyrrhetinic acid]
macrophage phagocytosis-enhancing activity (macrophage): no macrophage phagocytosis-enhancing activity
Cmax [1, 3]: 121 ng/mL
Tmax [1, 3]: 6 h

COc1c(O)cc(O)c2c(=O)cc(-c3ccccc3)oc12 [Wogonin, wogonin]
phagocytosis by macrophages (result in words) (RAW264.7 cells; 10 μmol/L): enhanced
Phagocytosis relative change versus control (RAW264.7 cells; Exp. 1, 10 μmol/L): 1.7
Phagocytosis MFI (RAW264.7 cells; [2]): 271 ± 16
AUC(0-t) [1, 3]: 71.5 ng·h/mL
Cmax [1, 3]: 16.3 ng/mL
Tmax [1, 3]: 4 h

O=c1cc(-c2ccc(O)c(O)c2)oc2cc(O)cc(O)c12 [Luteolin, luteolin]
phagocytosis by macrophages (result in words) (RAW264.7 cells; 10 μmol/L): enhanced
Phagocytosis relative change versus control (RAW264.7 cells; Exp. 1, 10 μmol/L): 2.6
Phagocytosis MFI (RAW264.7 cells; [2]): 408 ± 22
Tmax [1, 8]: 1.00 h
t1/2 [1, 8]: 11.7 h
AUC(0-t) [1, 3]: 21.3 ng·h/mL
Cmax [1, 3]: 4.7 ng/mL
Tmax [1, 3]: 6 h
